Assay results: patent US20250288634A1, “Fenugreek Formulation for Lowering Blood Glucose and Weight Loss” (priority 2024, published 2025)
Where two headings read alike, the source gives them in different places.

How the values were obtained:
[1] = cited from earlier work
[2] = molecular target: dipeptidyl-peptidase 4 (DPP4) (Homo sapiens, UniProt P27487); details: cited from earlier work
[3] = Clinical Case Example #2: regulating blood glucose levels, body weight, tolerability; type: in vivo, human; details: within just a few days of using, person with type-2 diabetes on metformin
Protocol: Clinical Case Example #2: The therapeutic composition (i.e. fenugreek formulation) used in Clinical Case Example #1 above was also tested for efficacy on regulating blood glucose levels. The subject was a person, height of 5 feet 6 inches and with baseline a body weight of about 175 lbs. Despite long-term management of their type-2 diabetes with metformin, they still had blood glucose readings almost continuously in the low to high 200s mg/dL (e.g. 204, 228, 277) with hemoglobin A1C of 7.2%. A typical fasting blood sugar for them was 189.
Due to consistently high blood glucose levels, their endocrinologist prescribed Januvia (sitagliptin, a dipeptidyl peptidase-4 (DPP-4) inhibitor). […]
When sufficiently recovered from the pancreatitis, they started using the fenugreek formulation of this invention (combination of fenugreek, curcumin, and chromium picolinate) while they continued taking metformin. Within a few days of starting the fenugreek formulation, their blood glucose readings declined from well over 200 for most of the day, to around 180, with excursions into the mid-200s only after high-sugar meals (whereas prior to this regimen, their blood glucose was in the 200s at a steady state). Occasionally, while on the fenugreek formulation regimen, they had blood glucose readings down to 110. This was the first time in half a decade that the subject had readings as low as 110. […]

Chain of dipeptidyl-peptidase 4 (DPP4) (P27487 whole entry, species assumed): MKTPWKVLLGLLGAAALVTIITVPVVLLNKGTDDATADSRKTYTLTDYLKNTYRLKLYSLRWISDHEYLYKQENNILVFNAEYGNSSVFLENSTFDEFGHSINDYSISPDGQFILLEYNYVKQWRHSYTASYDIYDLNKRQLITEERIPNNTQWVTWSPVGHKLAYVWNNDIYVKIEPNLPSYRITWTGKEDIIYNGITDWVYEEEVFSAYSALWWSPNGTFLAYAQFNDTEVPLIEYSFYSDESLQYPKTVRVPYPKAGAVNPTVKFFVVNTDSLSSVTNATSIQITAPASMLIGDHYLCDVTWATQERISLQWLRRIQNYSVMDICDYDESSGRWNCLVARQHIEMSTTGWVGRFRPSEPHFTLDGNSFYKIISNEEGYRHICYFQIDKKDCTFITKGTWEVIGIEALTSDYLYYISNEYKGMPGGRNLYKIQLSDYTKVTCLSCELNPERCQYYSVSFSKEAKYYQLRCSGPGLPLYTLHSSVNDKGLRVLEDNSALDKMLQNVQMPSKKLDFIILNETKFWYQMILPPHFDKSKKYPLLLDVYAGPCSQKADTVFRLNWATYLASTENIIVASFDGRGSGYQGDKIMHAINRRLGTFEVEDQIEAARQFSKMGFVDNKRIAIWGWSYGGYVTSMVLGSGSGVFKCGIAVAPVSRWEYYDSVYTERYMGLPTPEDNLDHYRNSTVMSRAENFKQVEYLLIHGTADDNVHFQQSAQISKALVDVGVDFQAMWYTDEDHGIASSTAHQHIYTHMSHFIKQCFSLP

[Cr] [chromium]
safety ([1]; 200-1,000 μg daily for up to two years): used safely
safety ([1]; up to 1,000 μg daily for up to six months): used safely

COc1cc(/C=C/C(=O)CC(=O)/C=C/c2ccc(O)c(OC)c2)ccc1O [curcumin]
action on DPP4 [2]: inhibits

N[C@@H](CC(=O)N1CCn2c(nnc2C(F)(F)F)C1)Cc1cc(F)c(F)cc1F [Januvia, sitagliptin]
adverse events [3]: diarrhea and signs of acute pancreatitis
